Laboratory results from patent US20240299492A1, “COMBINATION THERAPIES WITH SIRP ALPHA-BASED CHIMERIC PROTEINS” (Shattuck Labs, Inc., priority 2021, published 2024).
Entries after “also recorded” stand apart in the source; their conditions may differ.

Columns and labels:
calreticulin (CRT) [1] = assay: Surface expression of calreticulin in Kasumi-1 cells (flow cytometry); format: cell-based, human; details: 15 μM or 50 μM APR-246, overnight; FIG. 12B
Experimental: (§1) Briefly, the Kasumi-1 human acute myelocytic leukemia (AML) cells were incubated overnight in the presence of vehicle only control, 15 μM APR-246, or 50 μM APR-246. The following day, the Kasumi-1 cells were analyzed by flow cytometry for surface expression of p53 and calreticulin (CRT).

p53 = assay: Surface expression of p53 in Kasumi-1 cells (flow cytometry); format: cell-based, human; details: 15 μM or 50 μM APR-246, overnight; FIG. 12A
Experimental: as §1

CD47 [2] = assay: Surface expression of CD47 in K652 cells (flow cytometry); format: cell-based, human; details: 1 μM, overnight; FIG. 11A
Experimental: (§2) Briefly, the K652 human chronic myelogenous leukemia cells were incubated overnight in the presence of vehicle only control, 1 μM azacitidine or 1 μM pevonedistat. The following day, the K652 cells were analyzed by flow cytometry for surface expression of CD47 or calreticulin (CRT).

Kasumi-3 AML cells = assay: Phagocytosis of Kasumi-3 AML cells by human macrophages (flow cytometry): azacitidine and/or venetoclax and/or SIRPα-Fc-CD40L; format: cell-based; details: 50 μg/ml SIRPα-Fc-CD40L (p<0.05), 10 μM azacitidine (p<0.0001), 1 μM venetoclax (p<0.05); each combination p<0.0001; 4 hours; FIG. 14C
Experimental: Briefly, the Kasumi-3 AML cells were labeled with a green fluorescent tracker and co-cultured with human macrophages and treated with (1) vehicle alone control, (2) 50 μg/ml of the SIRPα-Fc-CD40L chimeric protein, (3) 10 μM azacitidine, (4) 50 μg/ml of the SIRPα-Fc-CD40L chimeric protein+10 μM azacitidine, (5) 1 μM venetoclax, (6) 50 μg/ml of the SIRPα-Fc-CD40L chimeric protein+1 μM venetoclax, or (7) 50 μg/ml of the SIRPα-Fc-CD40L chimeric protein+1 μM venetoclax+10 μM azacitidine. The cells were incubated at 37° C. in the presence of 5% CO2 for 4 hours. After this incubation, the cells were harvested and treated with an anti-CD11b antibody (a macrophage marker) and were analyzed using flow cytometry. Positive phagocytosis was determined by the overlap in signals of tumor (the green fluorescent tracker) and macrophage (anti-CD11b antibody staining). A phagocytosis index was calculated by setting the maximum phagocytosis value to 1, and then normalizing all other replicates accordingly. The phagocytosis index was plotted for the indicated treatments.

calreticulin (CRT) [3] = assay: Surface expression of calreticulin in Kasumi-3 cells (flow cytometry), Example 19; format: cell-based, human; details: increasing amounts, overnight; FIG. 14B
Experimental: (§3) The surface expression of apoptosis marker […] or the […] protein calreticulin (CRT) was studied. Briefly, the Kasumi-3 cells were incubated overnight in the presence of vehicle only control, increasing amounts of azacitidine or venetoclax, or a combination of azacitidine and venetoclax. The following day, the cells were analyzed by flow cytometry for surface expression of annexin or calreticulin (CRT). […] In addition, except for very high concentrations of azacitidine and venetoclax (100 μM each), the apoptosis induced by azacitidine and venetoclax was not additive compared to corresponding single treatments (FIG. 14A). […] In addition, except for very high concentrations of azacitidine and venetoclax (100 μM each), the apoptosis induced by azacitidine and venetoclax was not additive compared to corresponding single treatments (FIG. 14B).

calreticulin (CRT) [4] = assay: Surface expression of calreticulin in K652 cells (flow cytometry); format: cell-based, human; details: 1 μM, overnight; FIG. 11C
Experimental: as §2

[5] = test system: Kasumi-3 human acute myelocytic leukemia (AML) cells; assay: Phagocytosis of Kasumi-3 cells by human macrophages (flow cytometry): azacitidine and/or SIRPα-Fc-CD40L; format: cell-based; details: 0.1 pM azacitidine overnight and/or SIRPα-Fc-CD40L for 4 hours; combination p<0.0001 vs control; FIG. 2B
Experimental: (§4) In another experiment, the Kasumi-3 human acute myelocytic leukemia (AML) cells were labeled with a green fluorescent tracker and treated with vehicle alone control or 0.1 pM azacitidine overnight. The following day, the tumor cells were washed in PBS and then co-cultured with human macrophages with or without the SIRPα-Fc-CD40L chimeric protein for 4 hours at 37° C. in the presence of 5% CO2. After this incubation, the cells were harvested and treated with an anti-CD11b antibody (a macrophage marker) and were analyzed using flow cytometry. Positive phagocytosis was determined by the overlap in signals of tumor (the green fluorescent tracker) and macrophage (anti-CD11b antibody staining). A phagocytosis index was calculated by setting the maximum phagocytosis value to 1, and then normalizing all other replicates accordingly. The phagocytosis index was plotted for the indicated treatments.

A20 lymphoma cells = assay: In vivo anti-tumor efficacy, A20 lymphoma cell allograft mouse model; design: species or system BALB/C mice; details: day 12; 1 mg/kg azacitidine (days 0-4), 4 mg/kg pevonedistat (MLN4924) (days 0-3), 200 μg SIRPα-Fc-CD40L (mSIRPα-Fc-CD40L; days 0, 3, 6), intraperitoneal; FIG. 13C
Experimental: The efficacy of the SIRPα-Fc-CD40L chimeric protein was evaluated in combination with an immune checkpoint inhibitor. Towards that, the ability of an anti-PD-L1 antibody and chimeric proteins to target and reduce tumor volume in vivo was determined. Briefly, BALB/C mice were inoculated with 1×10^6 A20 lymphoma cells. When tumor volumes were approximately 75 to 80 mm^3 (day 0), the mice were randomly distributed in the following treatment groups: (1) vehicle only control, (2) 200 μg of the mouse SIRPα-Fc-CD40L chimeric protein alone, (3) 100 μg an anti-PD-L1 antibody (clone 10F.9G2), and (4) a combination 200 μg of the SIRPα-Fc-CD40L chimeric protein and 100 μg the anti-PD-L1 antibody. […] Tumors were measured with electronic calipers on day 12 and plotted using the GraphPad Prism software. […]
The efficacy of the SIRPα-Fc-CD40L chimeric protein was evaluated in combination with an antimetabolite/DNA synthesis inhibitor. Towards that, the ability of cytarabine and the chimeric protein to target and reduce tumor volume in vivo was determined. […] Tumors were measured with electronic calipers on day 12 and plotted using the GraphPad Prism software. […]
The efficacy of the SIRPα-Fc-CD40L chimeric protein was evaluated in combination with a hypomethylating agent/an epigenetic regulator and/or a protein neddylation inhibitor. […]

annexin V = assay: Surface expression of annexin V in Kasumi-3 cells (flow cytometry); format: cell-based, human; details: increasing amounts, overnight; FIG. 14A
Experimental: as §3

[6] = test system: K652 human chronic myelogenous leukemia (CML) cells; assay: Phagocytosis of K652 cells by human macrophages (flow cytometry): azacitidine and/or SIRPα-Fc-CD40L; format: cell-based; details: 0.1 μM azacitidine overnight and/or SIRPα-Fc-CD40L for 4 hours; combination p<0.001 vs control; FIG. 2A
Experimental: as §4, with “Briefly,” for “In another experiment,”, “K652” for “Kasumi-3”, “chronic myelogenous” for “acute myelocytic”, “(CML)” for “(AML)”, “μM” for “pM”

CD47 [7] = assay: Surface expression of CD47 in Kasumi-3 cells (flow cytometry); format: cell-based, human; details: 1 μM, overnight; FIG. 11B
Experimental: (§5) In another experiment, the Kasumi-3 human acute myelocytic leukemia (AML) cells were incubated overnight in the presence of vehicle only control, 1 μM pevonedistat (MLN4924) or […]. The following day, the Kasumi-3 cells were analyzed by flow cytometry for surface expression of CD47 or calreticulin (CRT).

calreticulin (CRT) [8] = assay: Surface expression of calreticulin in Kasumi-3 cells (flow cytometry), Example 17; format: cell-based, human; details: 1 μM, overnight; FIG. 11D
Experimental: as §5

SMILES | expression of calreticulin compared to the vehicle only-treated Kasumi-1 cells (calreticulin (CRT) [1]) | expression of p53 compared to the vehicle only-treated Kasumi-1 cells (p53) | surface expression of CD47 compared to the vehicle only-treated K652 cells (CD47 [2]) | level of phagocytosis (phagocytosis index) compared to the vehicle only-treated Kasumi-3 cells (Kasumi-3 AML cells) | expression of calreticulin compared to the vehicle only-treated Kasumi-3 cells (calreticulin (CRT) [3]) | surface expression of calreticulin, a pro-phagocytic marker, compared to the vehicle only-treated K652 cells (calreticulin (CRT) [4]) | level of phagocytosis (phagocytosis index) compared to the control Kasumi-3 cells [5] | tumor size (A20 lymphoma cells) | expression of annexin V (apoptosis marker) compared to the vehicle only-treated Kasumi-3 cells (annexin V) | level of phagocytosis (phagocytosis index) compared to the control K652 cells [6] | surface expression of CD47 compared to the vehicle only-treated Kasumi-3 cells (CD47 [7]) | surface expression of calreticulin, a pro-phagocytic marker, compared to the vehicle only-treated Kasumi-3 cells (calreticulin (CRT) [8])
COCC1(CO)C(=O)C2CCN1CC2 (stereo not drawn) [APR-246] | induced the expression | dose-dependent induction |  |  |  |  |  |  |  |  |  | 
Nc1ncn([C@@H]2O[C@H](CO)[C@@H](O)[C@H]2O)c(=O)n1 [azacitidine] |  |  | induced the expression | increased level of phagocytosis | induced the expression of calreticulin in Kasumi-3 cells in a dose-dependent manner; also recorded: increased the expression | induced the expression | slight increase in the level of phagocytosis | reduction in tumor size | induced the expression of annexin V in Kasumi-3 cells in a dose-dependent manner; also recorded: increased the expression | increased level of phagocytosis |  | 
NS(=O)(=O)OC[C@@H]1C[C@@H](n2ccc3c(N[C@H]4CCc5ccccc54)ncnc32)C[C@@H]1O [pevonedistat (MLN4924), pevonedistat] |  |  | induced the expression |  |  | induced the expression |  | reduction in tumor size |  |  | induced the expression | induced the expression
